Assay results from patent publication EP4353084A1, “BIOPESTICIDE COMPOSITION WITH SYNERGISTIC EFFECT AND METHOD FOR COMBATING AND CONTROLLING PESTS” (Kimitec Biogroup S.L, priority 2022, dated 2024).
Several values for one entry are separate records, joined by “and”; a condition that tells them apart may be missing. Identical values can stand only once. Marks after values point to notes of the source that are not given here.

Assays:
Format in all cases: in vivo
Tetranychus urticae [1] = assay: Contact mortality (Leaf Disc Method); settings: for Mortality (%M): adults, 24 h, Abbott corrected
Description: This bioassay is to evaluate the physical effect of different doses on the mortality of Tetranychus urticae (red spider mite) adults in a short/medium-term (0-24 hours) by topical application.
Tests were conducted in plastic net petri dishes (5 cm diameter) (Figure 2). (a) The bottom of the petri dish was covered with a thin (0.4 mm) layer of agar 12% (w/v). After 2 minutes, to cool agar, (b) bean (Phaseolus vulgaris) leaf discs (2 cm^2) were placed on the fresh agar surface (upper side up) and allowed to dry for 30 minutes. This provides a support and disc hydration along the experiment (24 h). Fifteen (c) Tetranychus urticae adults were placed on the upper surface of a bean leaf disc with a fine entomological brush. The mites were allowed to acclimate for 30 minutes. A total of 10 petri dishes for each treatment (individual active ingredients, blend of active ingredients, positive and negative controls) were used in each experiment and temporarily replicated 3 times along the week.
Each treatment (different doses of individual active ingredients, blend of active ingredients, and controls) was sprayed (50 µl) two times on the settled spider mites, covering all the disc surface in each petri dishes using a micro-atomizer. Closed and labeled bottles were incubated in a compact-type growth chamber at 25 (±2) °C, 60% relative humidity (RH), and a photoperiod of 16 h:8 h light: dark. Numbers of live and dead mite adults were counted at 24 h post-treatment. Mite adults were considered dead if no movement was apparent after probing with the tip of a fine brush under stereoscopic magnifying glass. Mortality percentage was calculated in treatment and control groups. If the mortality in negative control is above 20%, the test was discarded. When control mortality was greater than 5% but less than 20%, the observed mortality (%M) was corrected using Abbott's formula (Abbott, 1925): % Corrected M = (X−Y)/(100−Y)x [formula]
Where: X= Mortality (%) in the treatment; Y= Mortality (%) in the control
Means of %M were compared using a one-way analysis of variance (ANOVA, p<0.05) and LSD-test as a post hoc test to verify significant differences between single treatments using Statgraphics Centurion XVII software. When nonnormality in the data was detected, an additional Kruskal-Wallis test was conducted, and Box-and-Whisker Plot (Median Notch) was presented. Each active ingredient and the blend were tested in a dose-response experiment (3-5 serial dilutions) to calculate their relative potency (EC50 and/or EC90) from a linear regression analysis (%M on Log-dose). In addition, death mite adults were carefully observed under stereoscopic magnifying glass to differentiate the mechanisms of action involved in contact mortality such as: Blocking tracheal insect spiracles (suffocation) and effect on insect cuticle and/or membranes (osmotic shock). Table 4. Contact mortality of test items against Tetranychus urticae

Tetranychus urticae [2] = assay: In vitro settling inhibition (leaf disc painting method); settings: 24 h
Description: The objective of this bioassay is to evaluate the effect of different doses of individual active ingredients and biopesticide composition on the settling behavior of Tetranychus urticae. It's based on the preference of mite adults for treated and non-treated bean (Phaseolus vulgaris) plants located in the same petri dishes (in vitro assays) or entomological cages (in planta assays): Tests were conducted in plastic net petri dishes (5cm diameter) (Figure 3). The bottom of the petri dish was covered with a thin (0.4 mm) layer of agar 12% (w/v) (a). After 2 minutes to cool agar, bean (Phaseolus vulgaris) leaf discs (2 cm^2) were placed on the fresh agar surface (upper side up) and allowed to dry for 30 minutes. It provides a support and disc hydration along the experiment (24 h). Half of the discs were treated (T) with 20 µl of the individually active ingredients and the blend and the other half with water containing 2% TWEEN® 80 that was used as control (C). Fifteen Tetranychus urticae adults were placed on the middle of treated and untreated leaf discs and allowed to feed (24 h) in a compact-type growth chamber at 25 (±2) °C, 60% relative humidity, and a photoperiod of 16 h:8 h light: dark. A total of 10 petri dishes for each treatment were used in each experiment and temporarily replicated 3 times along the week. Table 5. In vitro antifeedant effects against Tetranychus urticae Settling inhibition index (%SI) was calculated according to the following formula: %SI = [1−((T)/(C))] × 100 [formula] T= Settling of treated plants; C= Settling of control plants.

Tetranychus urticae [3] = assay: In planta settling inhibition (Whole Plant Direct Method); settings: 24 hours
Description: The objective of this bioassay is to evaluate the effect of different doses of individual active ingredients and biopesticide composition on the settling behavior of Tetranychus urticae. It's based on the preference of mite adults for treated and non-treated bean (Phaseolus vulgaris) plants located in the same petri dishes (in vitro assays) or entomological cages (in planta assays): The experiments were conducted in bugdorm®-type net cages (60x60x60 cm, 140 microns mesh) (Figure 4). By putting inside this, 14 cm diameter pots with two similar bean plants in two-leaf stage in each pot (Figure 5). One of the plants was sprayed with the composition of the present invention and the other with the control and allowed to dry for 30 minutes. Adult mites (up to 100) were released at the base of stems between the two plants (treated and untreated), so that they had to choose between two alternatives or remain walking and/or resting on the cage walk. A total of 5 cages for each treatment (four plant each) (Figure 6) and control were used in each experiment and replicated 3 times in different days. Closed and labeled cages were incubated in a "walk-in" type growth chamber at 25 (±2) °C, 60% relative humidity (RH), and a photoperiod of 16 h:8 h light: dark. After 24 hours the number of adults settled in treated and non-treated plants and the number of laid eggs were recorded on both side of blade in each leaf. Number of mites and eggs were counted under a stereomicroscope. Settling inhibition index (%SI) was calculated according to the following formula: %SI = [1−((T)/(C))] × 100 [formula] T= Settling of treated plants; C= Settling of control plants. Oviposition inhibition index (%10) was calculated according to the following formula: %IO = [1−((T)/(C))] × 100 [formula] T= laid eggs on treated plants; C= laid eggs on control plants. Means of %SI and %10 were analyzed for significance by the non-parametric Wilcoxon signed-rank test (p<0.05). An asterisk (*) means statistically significancy. Table 6. In planta antifeedant effects against Tetranychus urticae

Tetranychus urticae [4] = assay: Knock-down bioassays; settings: 1% w/v; mortality assessed at 1, 2, 4, 6, 8, 16 and 24 hours after spraying; Figures 7 and 8
Description: Furthermore, the composition of the present invention was tested to evaluate its knock-down effect in the contact mortality assays of individual active ingredients and blend. Mortality, as in bioassay of contact mortality, was assessed at 1, 2, 4, 6, 8, 16 and 24 hours after spraying the blend of Eucalyptus oil and geraniol. In the case of individual active ingredients (Eucalyptus oil and geraniol), we used the dose that give major activity in contact (topical) assays 1% w/v Table 4. Blend was prepared at 0.06:0.06 %w/v (Eucalyptus oil: geraniol) for the bioassays with the biopesticide composition.
The same behavior was stated in the case of biopesticide composition (Figure 9). Abrupt curves showing high mortalities within oner hour are indicative of neurotoxic effects. However, smoothed curves could be used as indicative of non-toxic mode of action.

`CC(C)=CCC/C(C)=C/CO` [geraniol] was tested, and the “Mortality (%M)” value (Tetranychus urticae [1]; Dose 0.10 % (w/v)) was 18,1% and 18.1 ± 2.4% and 18.1 ± 2.4 ^a %, the “Mortality (%M)” value (Tetranychus urticae [1]; Dose 0.50 % (w/v)) was 28.2% and 28.2 ± 3.2% and 28.2 ± 3.2 ^b % and the “Mortality (%M)” value (Tetranychus urticae [1]; Dose 1.0 % (w/v)) was 43.9 ± 2.5% and 43.9 ± 2.5 ^c %. For the same molecule, the “EC50 (%, w/v)” value (Tetranychus urticae [1]; contact mortality, linear regression %M on Log-dose, limits in brackets) was “EC50 (%, w/v) = 2.44 (1.24, 4.75)”, the “concentration given 50% of contact mortality” value (Tetranychus urticae [1]; in vivo) was 2.44% and the “Settling inhibition (%SI)” value (Tetranychus urticae [2]; Dose 0.02 % (w/v)) was 31.1 ± 4.4 %. The “Settling inhibition (%SI)” value (Tetranychus urticae [2]; Dose 0.05 % (w/v)) was 47.5 ± 4.6 %, the “Settling inhibition (%SI)” value (Tetranychus urticae [2]; Dose 0.10 % (w/v)) was 70.6% and the “Settling inhibition (%SI)” value (Tetranychus urticae [2]; Dose 0.10 % (w/v), listed as Geraniol) was 70.6 ± 3.0 %. For the same molecule, the “Settling inhibition (%SI)” value (Tetranychus urticae [2]; Dose 0.50 % (w/v)) was 75.3 ± 3.4 %, the “Settling inhibition (%SI)” value (Tetranychus urticae [2]; Dose 1.0 % (w/v)) was 82.9 ± 2.5 % and the “Oviposition inhibition (%IO)” value (Tetranychus urticae [3]; Dose 0.10 % (w/v)) was 44.3 ± 3.7* %. For the same molecule, the “Settling inhibition (%SI)” value (Tetranychus urticae [3]; Dose 0.10 % (w/v)) was 57.7 ± 5.3%, the “Oviposition inhibition (%IO)” value (Tetranychus urticae [3]; Dose 0.50 % (w/v)) was 72.1 ± 3.1* % and the “Settling inhibition (%SI)” value (Tetranychus urticae [3]; Dose 0.50 % (w/v)) was 73.2 ± 2.6%. For the same molecule, the “Oviposition inhibition (%IO)” value (Tetranychus urticae [3]; Dose 1.0 % (w/v)) was 81.1 ± 2.1* %, the “Settling inhibition (%SI)” value (Tetranychus urticae [3]; Dose 1.0 % (w/v)) was 76.1 ± 2.7% and the “Knock-down effect (knockdown curve)” value (Tetranychus urticae [4]) was “slow and gradual increase in the mortality along the time”.

In the case of `Cc1ccc(C(C)C)cc1O` [Carvacrol], the “Mortality (%M)” value (Tetranychus urticae [1]; Dose 0.01 % (w/v)) is reported as 38.9 ± 5.1%, the “Mortality (%M)” value (Tetranychus urticae [1]; Dose 0.05 % (w/v)) is reported as 47.1 ± 7.2% and the “Mortality (%M)” value (Tetranychus urticae [1]; Dose 0.10 % (w/v)) is reported as 66.8 ± 5.3%. The “Mortality (%M)” value (Tetranychus urticae [1]; Dose 1.0 % (w/v)) was 100.0 ± 0.0%, the “concentration given 80% of contact mortality” value (Tetranychus urticae [1]; EC80) was 0.55% and the “EC80 (%, w/v)” value (Tetranychus urticae [1]; Table 12, contact mortality, limits in brackets, text calls it EC80) was “EC50 (%, w/v) = 0.55 (0.42, 0.8)”.
